Target: activated ERK2 (Homo sapiens (Human), UniProt P28482)
Assay: Activated ERK2 kinase assay (AlphaScreen, ERKtide peptide phosphorylation)
Type: biochemical
Conditions: […] ERK2, 200 nM ERKtide peptide, 35 μM ATP, 30 min preincubation; read-out: ERK2 IC50

Sequence of activated ERK2 (P28482 whole entry): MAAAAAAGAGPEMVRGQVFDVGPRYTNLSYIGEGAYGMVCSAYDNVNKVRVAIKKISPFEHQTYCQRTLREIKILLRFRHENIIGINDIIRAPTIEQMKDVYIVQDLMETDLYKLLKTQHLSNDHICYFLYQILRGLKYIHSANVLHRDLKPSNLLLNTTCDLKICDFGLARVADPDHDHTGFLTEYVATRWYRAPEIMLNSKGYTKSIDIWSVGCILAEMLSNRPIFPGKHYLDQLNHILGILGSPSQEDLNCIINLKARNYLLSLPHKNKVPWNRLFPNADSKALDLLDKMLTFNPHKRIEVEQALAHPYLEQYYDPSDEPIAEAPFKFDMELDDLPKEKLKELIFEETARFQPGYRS

SMILES	IC50 [nM]
CC1(C)c2cnc(NC3CCC(=O)NC3)nc2CN1C(=O)N[C@H](CO)c1ccccc1 (stereo partly drawn) [compound 85, N-((S)-2-hydroxy-1-phenylethyl)-5,5-dimethyl-2-((6-oxopiperidin-3-yl)amino)-5H-pyrrolo[3,4-d]pyrimidine-6(7H)-carboxamide]	53
CC1(C)c2cnc(NC3CCCCC3)nc2CN1C(=O)N[C@H](CO)c1ccccc1 [compound 86, (S)-2-(cyclohexylamino)-N-(2-hydroxy-1-phenylethyl)-5,5-dimethyl-5H-pyrrolo[3,4-d]pyrimidine-6(7H)-carboxamide]	22
Cn1cc(-c2cccc(CNC(=O)N3Cc4nc(NC5CCOCC5)ncc4C3(C)C)c2)cn1 [compound 87, 5,5-dimethyl-N-(3-(1-methyl-1H-pyrazol-4-yl)benzyl)-2-((tetrahydro-2H-pyran-4-yl)amino)-5H-pyrrolo[3,4-d]pyrimidine-6(7H)-carboxamide]	91
CC1(C)c2cnc(NC3CCOCC3)nc2CN1C(=O)NCc1cccc(C(N)=O)c1 [compound 88, N-(3-carbamoylbenzyl)-5,5-dimethyl-2-((tetrahydro-2H-pyran-4-yl)amino)-5H-pyrrolo[3,4-d]pyrimidine-6(7H)-carboxamide]	11
CC1(C)c2cnc(NC3CCOCC3)nc2CN1C(=O)NCc1nc(-c2ccc(F)cc2)cs1 [compound 89, N-((4-(4-fluorophenyl)thiazol-2-yl)methyl)-5,5-dimethyl-2-((tetrahydro-2H-pyran-4-yl)amino)-5H-pyrrolo[3,4-d]pyrimidine-6(7H)-carboxamide]	131
CC1(CO)c2cnc(NC3CCOCC3)nc2CN1C(=O)NCc1ccccc1 (stereo not shown) [compound 90, N-benzyl-5-(hydroxymethyl)-5-methyl-2-((tetrahydro-2H-pyran-4-yl)amino)-5H-pyrrolo[3,4-d]pyrimidine-6(7H)-carboxamide]	4020
C[C@@H](NC(=O)N1Cc2nc(NC3CCOCC3)ncc2C1(C)CO)c1ccccc1 (stereo partly drawn) [compound 91, 5-(hydroxymethyl)-5-methyl-N-((R)-1-phenylethyl)-2-((tetrahydro-2H-pyran-4-yl)amino)-5H-pyrrolo[3,4-d]pyrimidine-6(7H)-carboxamide]	657
C[C@@H](NC(=O)N1Cc2nc(NC3CCOCC3)ncc2C1(C)CO)c1ccccc1 (stereo partly drawn) [compound 92, 5-(hydroxymethyl)-5-methyl-N-((R)-1-phenylethyl)-2-((tetrahydro-2H-pyran-4-yl)amino)-5H-pyrrolo[3,4-d]pyrimidine-6(7H)-carboxamide]	1530
O=C(NCCc1ccccc1)N1Cc2nc(NC3CCOCC3)ncc2C12CCC2 [compound 96, N-phenethyl-2′-((tetrahydro-2H-pyran-4-yl)amino)spiro[cyclobutane-1,5′-pyrrolo[3,4-d]pyrimidine]-6′(7′H)-carboxamide]	90
O=C(Nc1cnn(Cc2ccccc2F)c1)N1Cc2nc(NC3CCOCC3)ncc2C12CCC2 [compound 99, N-(1-(2-fluorobenzyl)-1H-pyrazol-4-yl)-2′-((tetrahydro-2H-pyran-4-yl)amino)spiro[cyclobutane-1,5′-pyrrolo[3,4-d]pyrimidine]-6′(7′H)-carboxamide]	12
CNC(=O)c1cccc(CNC(=O)N2Cc3nc(NC4CCOCC4)ncc3C2(C)C)c1 [compound 100, 5,5-dimethyl-N-(3-(methylcarbamoyl)benzyl)-2-((tetrahydro-2H-pyran-4-yl)amino)-5H-pyrrolo[3,4-d]pyrimidine-6(7H)-carboxamide]	45
CN(C)C(=O)c1cccc(CNC(=O)N2Cc3nc(NC4CCOCC4)ncc3C2(C)C)c1 [compound 101, N-(3-(dimethylcarbamoyl)benzyl)-5,5-dimethyl-2-((tetrahydro-2H-pyran-4-yl)amino)-5H-pyrrolo[3,4-d]pyrimidine-6(7H)-carboxamide]	492
CNC(=O)C1CC(NC(=O)N2Cc3nc(NC4CCOCC4)ncc3C2(C)C)CN(Cc2ccccc2F)C1 (stereo not shown) [compound 102, N-(1-(2-fluorobenzyl)-5-(methylcarbamoyl)piperidin-3-yl)-5,5-dimethyl-2-((tetrahydro-2H-pyran-4-yl)amino)-5H-pyrrolo[3,4-d]pyrimidine-6(7H)-carboxamide]	2300
CNC(=O)C1CC(NC(=O)N2Cc3nc(NC4CCOCC4)ncc3C2(C)C)CN(Cc2cccc(Cl)c2)C1 (stereo not shown) [compound 103, N-(1-(3-chlorobenzyl)-5-(methylcarbamoyl)piperidin-3-yl)-5,5-dimethyl-2-((tetrahydro-2H-pyran-4-yl)amino)-5H-pyrrolo[3,4-d]pyrimidine-6(7H)-carboxamide]	9190
CC1(C)c2cnc(NC3CCOCC3)nc2CN1C(=O)N[C@@H]1CCN(Cc2cccc(Cl)c2)C1 [compound 104]	37
CC1(C)c2cnc(NC3CCOCC3)nc2CN1C(=O)Nc1cnn(Cc2ccccc2F)c1 [compound 105, N-(1-(2-fluorobenzyl)-1H-pyrazol-4-yl)-5,5-dimethyl-2-((tetrahydro-2H-pyran-4-yl)amino)-5H-pyrrolo[3,4-d]pyrimidine-6(7H)-carboxamide]	39
CC1(C)c2cnc(NC3CCOCC3)nc2CN1C(=O)NCc1cc(F)cc(S(C)(=O)=O)c1 [compound 107, N-(3-fluoro-5-(methylsulfonyl)benzyl)-5,5-dimethyl-2-((tetrahydro-2H-pyran-4-yl)amino)-5H-pyrrolo[3,4-d]pyrimidine-6(7H)-carboxamide]	44
CC1(C)c2cnc(NC3CCOCC3)nc2CN1C(=O)NCc1ccc(S(C)(=O)=O)cc1 [compound 108, 5,5-dimethyl-N-(4-(methylsulfonyl)benzyl)-2-((tetrahydro-2H-pyran-4-yl)amino)-5H-pyrrolo[3,4-d]pyrimidine-6(7H)-carboxamide]	65
CC1(C)c2cnc(NC3CCOCC3)nc2CN1C(=O)NCc1cc(Cl)cc(S(C)(=O)=O)c1 [compound 109, N-(3-chloro-5-(methylsulfonyl)benzyl)-5,5-dimethyl-2-((tetrahydro-2H-pyran-4-yl)amino)-5H-pyrrolo[3,4-d]pyrimidine-6(7H)-carboxamide]	6
CCCS(=O)(=O)c1cccc(CNC(=O)N2Cc3nc(NC4CCOCC4)ncc3C2(C)C)c1 [compound 110, 5,5-dimethyl-N-(3-(propylsulfonyl)benzyl)-2-((tetrahydro-2H-pyran-4-yl)amino)-5H-pyrrolo[3,4-d]pyrimidine-6(7H)-carboxamide]	39

Now from value to molecule:

IC50 [nM]	SMILES
16	CCS(=O)(=O)c1cccc(CNC(=O)N2Cc3nc(NC4CCOCC4)ncc3C2(C)C)c1 [compound 111, N-(3-(ethylsulfonyl)benzyl)-5,5-dimethyl-2-((tetrahydro-2H-pyran-4-yl)amino)-5H-pyrrolo[3,4-d]pyrimidine-6(7H)-carboxamide]
806	CC1(C)c2cnc(NC3CCOCC3)nc2CN1C(=O)NCc1ccccc1S(C)(=O)=O [compound 112, 5,5-dimethyl-N-(2-(methylsulfonyl)benzyl)-2-((tetrahydro-2H-pyran-4-yl)amino)-5H-pyrrolo[3,4-d]pyrimidine-6(7H)-carboxamide]
45	Cc1cccc(S(=O)(=O)N2CCC[C@@H](NC(=O)N3Cc4nc(NC5CCOCC5)ncc4C3(C)C)C2)c1 [compound 113, (R)-5,5-dimethyl-2-((tetrahydro-2H-pyran-4-yl)amino)-N-(1-(m-tolylsulfonyl)piperidin-3-yl)-5H-pyrrolo[3,4-d]pyrimidine-6(7H)-carboxamide]
176	Cc1ccc(S(=O)(=O)N2CCC[C@@H](NC(=O)N3Cc4nc(NC5CCOCC5)ncc4C3(C)C)C2)cc1 [compound 114, (R)-5,5-dimethyl-2-((tetrahydro-2H-pyran-4-yl)amino)-N-(1-tosylpiperidin-3-yl)-5H-pyrrolo[3,4-d]pyrimidine-6(7H)-carboxamide]
2	C[C@@H](NC(=O)N1Cc2nc(NC3CCOCC3)ncc2C1(C)C)c1cc(F)cc(S(C)(=O)=O)c1 [compound 115, (R)-N-(1-(3-fluoro-5-(methylsulfonyl)phenyl)ethyl)-5,5-dimethyl-2-((tetrahydro-2H-pyran-4-yl)amino)-5H-pyrrolo[3,4-d]pyrimidine-6(7H)-carboxamide]
457	C[C@H](NC(=O)N1Cc2nc(NC3CCOCC3)ncc2C1(C)C)c1cc(F)cc(S(C)(=O)=O)c1 [compound 116, (S)-N-(1-(3-fluoro-5-(methylsulfonyl)phenyl)ethyl)-5,5-dimethyl-2-((tetrahydro-2H-pyran-4-yl)amino)-5H-pyrrolo[3,4-d]pyrimidine-6(7H)-carboxamide]
7	CC1(C)c2cnc(NC3CCOCC3)nc2CN1C(=O)N[C@H](CO)c1cccc(S(C)(=O)=O)c1 [compound 117, (S)-N-(2-hydroxy-1-(3-(methylsulfonyl)phenyl)ethyl)-5,5-dimethyl-2-((tetrahydro-2H-pyran-4-yl)amino)-5H-pyrrolo[3,4-d]pyrimidine-6(7H)-carboxamide]
23	CC1(C)c2cnc(NC3CCOCC3)nc2CN1C(=O)N[C@@H]1CCCN(S(=O)(=O)c2cccc(Cl)c2)C1 [compound 118, (R)-N-(1-((3-chlorophenyl)sulfonyl)piperidin-3-yl)-5,5-dimethyl-2-((tetrahydro-2H-pyran-4-yl)amino)-5H-pyrrolo[3,4-d]pyrimidine-6(7H)-carboxamide]
156	CC1(C)c2cnc(NC3CCOCC3)nc2CN1C(=O)N[C@@H]1CCCN(S(=O)(=O)c2ccc(Cl)cc2)C1 [compound 119, (R)-N-(1-((4-chlorophenyl)sulfonyl)piperidin-3-yl)-5,5-dimethyl-2-((tetrahydro-2H-pyran-4-yl)amino)-5H-pyrrolo[3,4-d]pyrimidine-6(7H)-carboxamide]
158	CC1(C)c2cnc(NC3CCOCC3)nc2CN1C(=O)NCc1ccccc1F [compound 120, N-(2-fluorobenzyl)-5,5-dimethyl-2-((tetrahydro-2H-pyran-4-yl)amino)-5H-pyrrolo[3,4-d]pyrimidine-6(7H)-carboxamide]
10	CC1(C)c2cnc(NC3CCOCC3)nc2CN1C(=O)NCc1ccc(C(F)(F)F)cc1 [compound 121, 5,5-dimethyl-2-((tetrahydro-2H-pyran-4-yl)amino)-N-(4-(trifluoromethyl)benzyl)-5H-pyrrolo[3,4-d]pyrimidine-6(7H)-carboxamide]
